In patent publication US20250122174A1 (Shenzhen Yuanli Shenwan Innovative Medicine Co., Ltd., priority 2022, published 2025):

molecular target: HPK1 (Homo sapiens (Human), UniProt Q92918); assay: HPK1 Inhibition Assay (ADP-Glo kinase assay); type: biochemical; details: ATP 10 μM
Method in brief: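 ADP-Glo luminescence read-out after 1 h room-temperature kinase reaction with 10 μM ATP and 0.1 μg/ml MBP. Recombinant human HPK1 at 7.5 ng/μl; buffer 40 mM Tris pH 7.5, 20 mM MgCl2. Compounds serially diluted 5-fold over 10 points from 10 mM DMSO stock.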

HPK1, sequence (Q92918 1-346 limits assumed): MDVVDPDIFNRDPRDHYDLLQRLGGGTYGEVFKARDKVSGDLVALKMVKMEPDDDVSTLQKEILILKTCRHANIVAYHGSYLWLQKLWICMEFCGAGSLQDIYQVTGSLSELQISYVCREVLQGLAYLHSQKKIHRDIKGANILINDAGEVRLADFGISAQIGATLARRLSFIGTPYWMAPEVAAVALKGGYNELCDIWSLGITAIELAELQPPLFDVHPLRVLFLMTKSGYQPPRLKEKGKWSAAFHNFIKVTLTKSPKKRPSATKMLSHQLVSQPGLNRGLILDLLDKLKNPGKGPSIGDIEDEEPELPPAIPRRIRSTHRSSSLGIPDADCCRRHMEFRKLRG

IC50, < 100 nM:
CC1(C)CN(c2c(NC(=O)c3ccc(=O)n(-c4c(F)cccc4F)n3)ccc3c2cnn3[C@@H]2CCOC2)C[C@@H]1N [Example 267, N-(4-((R)-4-amino-3,3-dimethylpyrrolidin-1-yl)-1-((R)-tetrahydrofuran-3-yl)-1H-indazol-5-yl)-1-(2,6-difluorophenyl)-6-oxo-1,6-dihydropyridazine-3-carboxamide]
CC1(C)CN(c2c(NC(=O)c3ccc(=O)n(-c4c(F)cccc4F)n3)ccc3c2cnn3[C@@H]2CCOC2)C[C@H]1N [Example 268, N-(4-((S)-4-amino-3,3-dimethylpyrrolidin-1-yl)-1-((R)-tetrahydrofuran-3-yl)-1H-indazol-5-yl)-1-(2,6-difluorophenyl)-6-oxo-1,6-dihydropyridazine-3-carboxamide]
CC1(C)CN(c2c(NC(=O)c3ccc(=O)n(-c4c(F)cccc4F)n3)ccc3c2cnn3[C@H]2CCOC2)C[C@@H]1N [Example 269, N-(4-((R)-4-amino-3,3-dimethylpyrrolidin-1-yl)-1-((S)-tetrahydrofuran-3-yl)-1H-indazol-5-yl)-1-(2,6-difluorophenyl)-6-oxo-1,6-dihydropyridazine-3-carboxamide]
CC1(C)CN(c2c(NC(=O)c3ccc(=O)n(-c4c(F)cccc4F)n3)ccc3c2cnn3[C@H]2CCOC2)C[C@H]1N [Example 270, N-(4-((S)-4-amino-3,3-dimethylpyrrolidin-1-yl)-1-((S)-tetrahydrofuran-3-yl)-1H-indazol-5-yl)-1-(2,6-difluorophenyl)-6-oxo-1,6-dihydropyridazine-3-carboxamide]
N[C@H]1CN(c2c(NC(=O)c3ccc(=O)n(-c4c(F)cccc4F)n3)ccc3c2cnn3[C@H]2CCCOC2)CC12CC2 [Example 271, N-(4-((R)-7-amino-5-azaspiro[2.4]heptan-5-yl)-1-((S)-tetrahydro-2H-pyran-3-yl)-1H-indazol-5-yl)-1-(2,6-difluorophenyl)-6-oxo-1,6-dihydropyridazine-3-carboxamide]
N[C@H]1CN(c2c(NC(=O)c3ccc(=O)n(-c4c(F)cccc4F)n3)ccc3c2cnn3[C@@H]2CCCOC2)CC12CC2 [Example 272, N-(4-((R)-7-amino-5-azaspiro[2.4]heptan-5-yl)-1-((R)-tetrahydro-2H-pyran-3-yl)-1H-indazol-5-yl)-1-(2,6-difluorophenyl)-6-oxo-1,6-dihydropyridazine-3-carboxamide]
C[C@H]1CN(c2c(NC(=O)c3ccc(=O)n(-c4c(F)cccc4F)n3)ccc3c2cnn3C2CCOCC2)C[C@@H]1N [Example 273, N-(4-((3R,4S)-3-amino-4-methylpyrrolidin-1-yl)-1-(tetrahydro-2H-pyran-4-yl)-1H-indazol-5-yl)-1-(2,6-difluorophenyl)-6-oxo-1,6-dihydropyridazine-3-carboxamide]
N[C@@H]1CCN(c2c(NC(=O)c3ccc(=O)n(-c4c(F)cccc4F)n3)ccc3c2cnn3C2CCOCC2)C1 [Example 274, N-[4-[(3R)-3-aminopyrrolidin-1-yl]-1-tetrahydropyran-4-yl-indazol-5-yl]-1-(2,6-difluorophenyl)-6-oxo-pyridazine-3-carboxamid]
[2H]C([2H])([2H])C([2H])(n1ncc2c(N3C[C@@H](C)[C@@H](N)C3)c(NC(=O)c3ccc(=O)n(-c4c(F)cccc4F)n3)ccc21)C([2H])([2H])[2H] [Example 275, N-(4-((3R,4R)-3-amino-4-methylpyrrolidin-1-yl)-1-(propan-2-yl-d7)-1H-indazol-5-yl)-1-(2,6-difluorophenyl)-6-oxo-1,6-dihydropyridazine-3-carboxamide]
[2H]C([2H])([2H])C([2H])(n1ncc2c(N3C[C@H](N)C4(CC4)C3)c(NC(=O)c3ccc(=O)n(-c4c(F)cccc4F)n3)ccc21)C([2H])([2H])[2H] [Example 276, (R)-N-(4-(7-amino-5-azaspiro[2.4]heptan-5-yl)-1-(propan-2-yl-d7)-1H-indazol-5-yl)-1-(2,6-difluorophenyl)-6-oxo-1,6-dihydropyridazine-3-carboxamide]
[2H]C([2H])([2H])C(n1ncc2c(N3C[C@H](N)C4(CC4)C3)c(NC(=O)c3ccc(=O)n(-c4c(F)cccc4F)n3)ccc21)C([2H])([2H])[2H] [Example 277, (R)-N-(4-(7-amino-5-azaspiro[2.4]heptan-5-yl)-1-(propan-2-yl-1,1,1,3,3,3-d6)-1H-indazol-5-yl)-1-(2,6-difluorophenyl)-6-oxo-1,6-dihydropyridazine-3-carboxamide]
[2H]C([2H])([2H])C(n1ncc2c(N3C[C@@H](C)[C@@H](N)C3)c(NC(=O)c3ccc(=O)n(-c4c(F)cccc4F)n3)ccc21)C([2H])([2H])[2H] [Example 278, N-(4-((3R,4R)-3-amino-4-methylpyrrolidin-1-yl)-1-(propan-2-yl-1,1,1,3,3,3-d6)-1H-indazol-5-yl)-1-(2,6-difluorophenyl)-6-oxo-1,6-dihydropyridazine-3-carboxamide]
[2H]C([2H])([2H])C(n1ncc2c(N3C[C@H](N)C(C)(C)C3)c(NC(=O)c3ccc(=O)n(-c4c(F)cccc4F)n3)ccc21)C([2H])([2H])[2H] [Example 279, (R)-N-(4-(4-amino-3,3-dimethylpyrrolidin-1-yl)-1-(propan-2-yl-1,1,1,3,3,3-d6)-1H-indazol-5-yl)-1-(2,6-difluorophenyl)-6-oxo-1,6-dihydropyridazine-3-carboxamide]
[2H]C([2H])([2H])C(n1ncc2c(N3C[C@@H](N)C(C)(C)C3)c(NC(=O)c3ccc(=O)n(-c4c(F)cccc4F)n3)ccc21)C([2H])([2H])[2H] [Example 280, (S)-N-(4-(4-amino-3,3-dimethylpyrrolidin-1-yl)-1-(propan-2-yl-1,1,1,3,3,3-d6)-1H-indazol-5-yl)-1-(2,6-difluorophenyl)-6-oxo-1,6-dihydropyridazine-3-carboxamide]
[2H]C([2H])([2H])C([2H])(n1ncc2c(N3C[C@H](N)C(C)(C)C3)c(NC(=O)c3ccc(=O)n(-c4c(F)cccc4F)n3)ccc21)C([2H])([2H])[2H] [Example 281, (R)-N-(4-(4-amino-3,3-dimethylpyrrolidin-1-yl)-1-(propan-2-yl-d7)-1H-indazol-5-yl)-1-(2,6-difluorophenyl)-6-oxo-1,6-dihydropyridazine-3-carboxamide]
[2H]C([2H])([2H])C([2H])(n1ncc2c(N3C[C@@H](N)C(C)(C)C3)c(NC(=O)c3ccc(=O)n(-c4c(F)cccc4F)n3)ccc21)C([2H])([2H])[2H] [Example 282, (S)-N-(4-(4-amino-3,3-dimethylpyrrolidin-1-yl)-1-(propan-2-yl-d7)-1H-indaozl-5-yl)-1-(2,6-difluorophenyl)-6-oxo-1,6-dihydropyridazine-3-carboxamide]
COCCn1ncc2c(N3C[C@@H](C)[C@@H](N)C3)c(NC(=O)c3ccc(=O)n(-c4c(F)cccc4F)n3)ccc21 [Example 283, N-(4-((3R,4R)-3-amino-4-methylpyrrolidin-1-yl)-1-(2-methoxyethyl)-1H-indazol-5-yl)-1-(2,6-difluorophenyl)-6-oxo-1,6-dihydropyridazine-3-carboxamide]
COCCn1ncc2c(N3CCC(N)CC3)c(NC(=O)c3ccc(=O)n(-c4c(F)cccc4F)n3)cc(F)c21 [Example 284, N-(4-(4-aminopiperidin-1-yl)-7-fluoro-1-(2-methoxyethyl)-1H-indazol-5-yl)-1-(2,6-difluorophenyl)-6-oxo-1,6-dihydropyridazine-3-carboxamide]
COCCn1ncc2c(N3CC[C@@H](N)C3)c(NC(=O)c3ccc(=O)n(-c4c(F)cccc4F)n3)ccc21 [Example 285, (R)-N-(4-(3-aminopyrrolidin-1-yl)-1-(2-methoxyethyl)-1H-indazol-5-yl)-1-(2,6-difluorophenyl)-6-oxo-1,6-dihydropyridazine-3-carboxamide]
COCCn1ncc2c(N3CCC[C@@H](N)C3)c(NC(=O)c3ccc(=O)n(-c4c(F)cccc4F)n3)cc(F)c21 [Example 286, (R)-N-(4-(3-aminopiperidin-1-yl)-7-fluoro-1-(2-methoxyethyl)-1H-indazol-5-yl)-1-(2,6-difluorophenyl)-6-oxo-1,6-dihydropyridazine-3-carboxamide]
N[C@@H]1CCN(c2c(NC(=O)c3ccc(=O)n(-c4c(F)cccc4F)n3)ccc3c2cnn3C2CCCC2)C1 [Example 287, (R)-N-(4-(3-aminopyrrolidin-1-yl)-1-cyclopentyl-1H-indazol-5-yl)-1-(2,6-difluorophenyl)-6-oxo-1,6-dihydropyridazine-3-carboxamide]
C[C@@H]1CN(c2c(NC(=O)c3ccc(=O)n(-c4c(F)cccc4F)n3)ccc3c2cnn3C2CCCC2)C[C@@H]1N [Example 288, N-(4-((3R,4R)-3-amino-4-methylpyrrolidin-1-yl)-1-cyclopentyl-1H-indazol-5-yl)-1-(2,6-difluorophenyl)-6-oxo-1,6-dihydropyridazine-3-carboxamide34]
CCn1ncc2c(N3CC[C@@H](N)C3)c(NC(=O)c3ccc(=O)n(-c4c(F)cccc4F)n3)cc(F)c21 [Example 289, (R)-N-(4-(3-aminopyrrolidin-1-yl)-1-ethyl-7-fluoro-1H-indazol-5-yl)-1-(2,6-difluorophenyl)-6-oxo-1,6-dihydropyridazine-3-carboxamide]
N[C@@H]1CCN(c2c(NC(=O)c3ccc(=O)n(-c4c(F)cccc4F)n3)ccc3c2cnn3CC(F)(F)F)C1 [Example 290, (R)-N-(4-(3-aminopyrrolidin-1-yl)-1-(2,2,2-trifluoroethyl)-1H-indazol-5-yl)-1-(2,6-difluorophenyl)-6-oxo-1,6-dihydropyridazine-3-carboxamide]
C[C@@H]1CN(c2c(NC(=O)c3ccc(=O)n(-c4c(F)cccc4F)n3)ccc3c2cnn3CC(F)(F)F)C[C@@H]1N [Example 291, N-(4-((3R,4R)-3-amino-4-methylpyrrolidin-1-yl)-1-(2,2,2-trifluoroethyl)-1H-indazol-5-yl)-1-(2,6-difluorophenyl)-6-oxo-1,6-dihydropyridazine-3-carboxamide]
